# From patent US20100130459A1, “NEUROPROTECTIVE 7-BETA-HYDROXYSTEROIDS” (Hunter-Fleming Limited, priority 2000, published 2010)
# Assays:
# [1] = test system: Organotypic hippocampal slice cultures (CA1 cell layer); test: Hypoxic neuronal damage in organotypic hippocampal slice cultures (PI fluorescence in CA1); type: cell-based, Wistar rat
# Experimental: Organotypic hippocampal slice cultures were prepared using the basic method of Pringle et al (1996, 1997) modified as follows:
# Wistar rat pups (8-11 days old) were decapitated and the hippocampus rapidly dissected into ice-cold Gey's balanced salt solution supplemented with 4.5 mg/ml glucose. Slices were separated and plated onto Millicell CM culture inserts (4 per well) and maintained at 37′C./5% CO2 for 14 days. Maintenance medium consisted of 25% heat-inactivated horse serum, 25% Hank's balanced salt solution (HBSS) and 50% minimum essential medium with added Earle's salts (MEM) supplemented with 1 mM glutamine and 4.5 mg/ml glucose. Medium was changed every 3-4 days.
# Experimental hypoxia was performed as described previously (Pringle e al., 1996; 1997). Briefly, cultures were transferred to serum free medium (SFM—75% MEM, 25% HBSS supplemented with 1 mM glutamine and 4.5 mg/ml glucose) containing 5 μg/ml of the fluorescent exclusion dye propidium iodide (PI). Cultures were allowed to equilibrate in SFM for 60 minutes prior to imaging. PI fluorescence was detected using a Leica inverted microscope fitted with a rhodamine filter set. Any cultures in which PI fluorescence was detected at this stage were excluded from further study. Hypoxia was induced by transferring cultures to SEM (+PI) which had been saturated with 95% N2/5% CO2. Culture plates (without lids) were then sealed into an airtight chamber in which the atmosphere was saturated with 95% N2/5% CO2 by continuously blowing through gas at 10 L/min for ten minutes before being sealed and placed in the incubator for 170 mins (total time of hypoxia was therefore 180 mins). At the end of the hypoxic period cultures were returned to normoxic SFM containing PI and placed back in the incubator for 24 hours.
# Neuronal damage was assessed as described previously (Pringle et al., 1996; 1997) using either NIH Image 1.60 running on an Apple IIsi computer or OpenLab 2.1 (Improvision) running on a Macintosh G4/400. Images were captured using a monochrome camera and saved onto optical disk for offline analysis. Light transmission images were captured prior to the addition of drugs, and PI fluorescence images recorded at the end of the 24-hour post-hypoxia recovery period. The area of the CA1 cell layer was determined from the transmission image. The area of PI fluorescence in CA1 was measured using the density slice function within NIH Image or OpenLab, and neuronal damage expressed as the percentage of the CA1 in which PI fluorescence was detected above background.
# Steroid compounds were prepared by making an initial 1 mg/ml solution in ethanol and further diluting down in SFM. Compounds were added to the cultures for 45 minutes prior to hypoxia, during the hypoxic episode and during the post-hypoxic recovery period. Control experiments consisted of cultures treated with vehicle alone.
# [2] = test system: hippocampal CA1 pyramidal cells; test: Global cerebral ischemia in rats (4 vessel occlusion), surviving CA1 neurons by Nissl staining; type: in vivo, male Wistar rats
# Experimental: Cerebral ischemia was induced by four-vessel-occlusion (4VO) in male Wistar rats (250-280 g). Both vertebral arteries were occluded by electrocauterization in pentobarbital anesthesia (60 mg/kg i.p.). The animals were allowed to recover for 24 hours with free access to water but not food. The next day the carotid arteries were exposed under 2% halothane in 30% oxygen/70% nitrous oxide anesthesia and were occluded for 10 minutes using microvascular claps. Subsequently, both clamps were removed and both arteries were inspected for immediate reperfusion. During the operation and the following 3 hours normothermia of the animals (37.5±0.5° C.) was maintained by using a thermostatically controlled heating blanket connected to a rectal thermometer. For control, in sham-operated animals both vertebral arteries were cauterized in pentobarbital anesthesia and both common carotid arteries were exposed but not clamped under 2% halothane in 30% oxygen/70% nitrous oxide anesthesia the following day. The wound was treated with lidocaine gel and then sutured. The animals were kept under a heating lamp at 30° C. environmental temperature until they regained consciousness.
# Seven groups of animals were investigated: • 1. (n=8) steroid compound, 7β-OH EPIA (0.1 mg/kg, i. v. via tail vein, three injections: 15 minutes prior to the induction of ischemia, during ischemia and 5 minutes after reperfusion); • 2. (n=8) steroid compound, 7β-OH EPIA (0.3 mg/kg, i. v. three injections as described in 1.); • 3. (n=8) steroid compound, 7β-OH EPIA (1 mg/kg, i. v., three injections as described in 1.); • 4. (n=8) NBQX (disodium salt, because more water soluble) as reference substance and positive control (TOCRIS, Germany, 30 mg/kg, i. p., three injections as described in 1.); • 5. (n=8) received vehicle (0.9% NaCl, containing 100 μl Ethanol) three injections as described in 1.); • 6. (n=8) ischemia alone; • 7. (n=8) sham operated controls.
# The substances were dissolved in 100 μl Ethanol and finally diluted with 0.9% NaCl.
# After a survival time of 7 days after ischemia, all animals were perfusion fixed transcardially with 4% paraformaldehyde. The brains were then removed carefully and postfixed in the same fixative for 2 hours. After cryoprotection in 30% sucrose, the brains were rapidly frozen in isopentane and stored at −80° C. Twenty-micrometer cryostat sections comprising the hippocampal formation were Niss1 stained with toluidine blue or NeuroTrace fluorescence.
# The severity of neuronal damage in the hippocampal CA1 region after ischemia was evaluated by the number of surviving neurons using Niss1 staining. The mean number of morphologically intact neurons per 400 μm length was calculated in CA1 region for each group. Cell counting was performed in 3-5 serial sections per animal and 6 times 400 μm CA1 area per section using a light microscope equipped with a 20× objective. The data were statistically analyzed by paired Student's t-test. Data were presented as mean±SEM.
# [3] = Experiment 1, 100 nM pre-, during and post-hypoxia
# [4] = Experiment 1, 100 nM present pre-, during and post-hypoxia, control hypoxia 25.5 ± 6.4
# [5] = 30 mg/kg, three injections, 10 min global ischemia, 7 days survival
smiles,measurement,setting,value
"C[C@]12CC[C@H](O)C[C@@H]1C[C@@H](O)[C@@H]1[C@@H]2CC[C@]2(C)C(=O)CC[C@@H]12 [Example 7αOH-EPIA, 7α-Hydroxy-EPIA]",Reduction of hypoxic damage in CA1 (in words),[1]; [3],significantly reduced
same,% Damage in CA1,[1]; [4],4.0 ± 2.9 %
"C[C@]12CC[C@H](O)CC1=C[C@H](O)[C@@H]1[C@@H]2CC[C@]2(C)C(=O)CC[C@@H]12 [Example 7βOH-DHEA, 7β-hydroxy-DHEA]",Reduction in neuronal damage (in words),"[1]; Experiment 3, 100 nM pre-, during and post-hypoxia","large, highly significant, reduction in neuronal damage"
same,% Damage in CA1,"[1]; Experiment 3, 100 nM pre-, during and post-hypoxia, control hypoxia 29.0 ± 6.2",4.2 ± 1.9 %
"C[C@]12CC[C@H](O)C[C@@H]1C[C@H](O)[C@@H]1[C@@H]2CC[C@]2(C)C(=O)CC[C@@H]12 [Example 7βOH-EPIA, 7β-hydroxyepiandrosterone]","Neuroprotective effect (in words, t-test)",[2]; 0.1 mg/kg (p=0.01) and 0.3 mg/kg (p=0.0008) i.v.,highly significant neuroprotective effect
same,Neuroprotective effect on CA1 pyramidal cells compared to the sham operated group (FIG. 1C),"[2]; 0.1 mg/kg i.v., three injections, 10 min global ischemia, 7 days survival",74.8%
same,Neuroprotective effect on CA1 pyramidal cells compared to the sham operated group (FIG. 1C),"[2]; 0.3 mg/kg i.v., three injections, 10 min global ischemia, 7 days survival",83.9%
same,Neuroprotection of CA1 pyramidal cells (in words),"[2]; 1.0 mg/kg i.v., three injections","only a tendency to neuroprotection, but the effect was not significant"
same,Behavioral abnormalities of the animals,"[2]; injected i.v. prior, during and after ischemia, all experiments",never observed any behavioral abnormalities
same,Reduction of hypoxic damage in CA1 (in words),[1]; [3],significantly reduced
same,% Damage in CA1,[1]; [4],9.0 ± 4.7 %
same,Neuroprotection against hypoxia (in words),"[1]; Experiment 2, 1 nM",activity was lost
same,% Damage in CA1,"[1]; Experiment 2, 1 nM, control hypoxia 31.9 ± 4.7",20.6 ± 7.2%
same,Neuroprotection against hypoxia (in words),"[1]; Experiment 2, 10 nM and 100 nM",significantly neuroprotective
same,% Damage in CA1,"[1]; Experiment 2, 10 nM, control hypoxia 31.9 ± 4.7",11.9 ± 4.7 %
same,% Damage in CA1,"[1]; Experiment 2, 100 nM, control hypoxia 31.9 ± 4.7",14.3 ± 5.0 %
"NS(=O)(=O)c1cccc2c1c([N+](=O)[O-])cc1nc(O)c(O)nc12 [NBQX, 2,3-dihydroxy-6-nitro-7-sulfamoyl-benzo(F)quinoxaline, reference compound]","Neuroprotection in CA1 pyramidal cells compared to the ischemia group (in words, t-test)","[2]; 30 mg/kg, three injections",significant (p=0.03) neuroprotection
same,Neuroprotection compared to the ischemia alone,[2]; [5],47.5%
same,Protective effect compared to the sham operated animals,[2]; [5],68.5%
